This note sets out measurements from US9434725B2, “5-azaindazole compounds and methods of use” (priority 2012, dated 2016).

What all share (assay type): biochemical
One test addresses PIM1 (Homo sapiens (Human), UniProt P11309). Kind of test: biochemical. The conditions noted are these: 10 μM ATP, 90 min, room temperature; read-out: PIM1 LC3K (KI). The method, boiled down:
(§1)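 Pim-specific fluorescent peptide phosphorylated in 10 mM HEPES pH 7.2, 10 mM MgCl2, 0.01% Tween 20, 2 mM DTT for 90 min at room temperature, then stopped with EDTA. Product and substrate separated by microfluidic mobility shift; Ki derived from substrate conversion.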

The target of a further test is PIM3 (Homo sapiens (Human), UniProt Q86V86). Kind of test: Pim kinase binding activity, Caliper LC3000 microfluidic peptide phosphorylation assay, PIM3. The conditions noted are these: 10 μM ATP, 90 min, room temperature; read-out: PIM3 LC3K (KI). The method, boiled down: as §1
A further test has as its target PIM2 (Homo sapiens (Human), UniProt Q9P1W9). The test can be described thus: Pim kinase binding activity, Caliper LC3000 microfluidic peptide phosphorylation assay, PIM2. The conditions noted are these: 10 μM ATP, 90 min, room temperature; read-out: PIM2 LC3K (KI). Put shortly:
as §1

Structures are written as SMILES. Counter-ions that a name gives are not always drawn.

Sequence of PIM1 (P11309 whole entry): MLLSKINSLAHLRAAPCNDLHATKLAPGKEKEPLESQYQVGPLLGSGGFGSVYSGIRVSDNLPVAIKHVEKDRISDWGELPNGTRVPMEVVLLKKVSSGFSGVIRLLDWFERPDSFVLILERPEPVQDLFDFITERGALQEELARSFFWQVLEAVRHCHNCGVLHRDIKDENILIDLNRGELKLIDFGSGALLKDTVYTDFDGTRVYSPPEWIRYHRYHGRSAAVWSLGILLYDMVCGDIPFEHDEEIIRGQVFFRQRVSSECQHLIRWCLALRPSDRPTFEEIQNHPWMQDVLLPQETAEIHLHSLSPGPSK
Sequence of PIM2 (Q9P1W9 whole entry): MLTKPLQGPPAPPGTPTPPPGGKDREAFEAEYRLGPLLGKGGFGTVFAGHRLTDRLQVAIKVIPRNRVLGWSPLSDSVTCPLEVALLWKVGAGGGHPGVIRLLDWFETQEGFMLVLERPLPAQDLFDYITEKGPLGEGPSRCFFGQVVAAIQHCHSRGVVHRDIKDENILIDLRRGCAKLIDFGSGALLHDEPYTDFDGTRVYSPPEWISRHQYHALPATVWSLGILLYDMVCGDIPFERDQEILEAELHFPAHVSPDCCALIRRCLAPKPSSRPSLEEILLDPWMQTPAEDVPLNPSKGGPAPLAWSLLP

The Ki is the dissociation constant of the complex between target and ligand, obtained from inhibition or displacement. Take `Cc1cncc(-c2cc3c(cn2)cnn3-c2cc(C3COC3)cc(N3CCC[C@H](N)C3)n2)n1` [Compound 250, (S)-1-(6-(6-(6-methylpyrazin-2-yl)-1H-pyrazolo[4,3-c]pyridin-1-yl)-4-(oxetan-3-yl)pyridin-2-yl)piperidin-3-amine]: the Ki is 3.89 nM on PIM1, 0.743 nM at PIM3 and 24.8 nM at PIM2.

`COc1ccc(-n2ncc3cnc(-c4cncc(C)n4)cc32)nc1N1CCCNC1=O` [Compound 251, 1-[3-methoxy-6-[6-(6-methylpyrazin-2-yl)pyrazolo[4,3-c]pyridin-1-yl]-2-pyridyl]hexahydropyrimidin-2-one]: the Ki is 48.8 nM on PIM1, 31.6 nM on PIM3 and 181 nM at PIM2.

In the case of `Cc1cncc(-c2cc3c(cn2)cnn3-c2cccc(N3CCCNC3=O)n2)n1` [Compound 252, 1-[6-[6-(6-methylpyrazin-2-yl)pyrazolo[4,3-c]pyridin-1-yl]-2-pyridyl]hexahydropyrimidin-2-one], the values for the Ki on PIM1, on PIM3 and on PIM2 were 5.67 nM, 3.16 nM and 35 nM, respectively.

Regarding `Cn1cc(-c2cc3c(cn2)cnn3-c2cccc(N3CC(O)C3)n2)cn1` [Compound 253, 1-(6-(6-(1-Methyl-1H-pyrazol-4-yl)-1H-pyrazolo[4,3-c]pyridin-1-yl)pyridin-2-yl)azetidin-3-ol], the Ki was 2.52 nM at PIM1, 1.78 nM at PIM3 and 45.1 nM on PIM2.

For the molecule `Cn1cc(-c2cc3c(cn2)cnn3-c2cn(C)c(=O)c(N3CCNCC(O)C3)n2)cn1` (stereo not drawn) [Compound 254, 3-(6-Hydroxy-1,4-diazepan-1-yl)-1-methyl-5-(6-(1-methyl-1H-pyrazol-4-yl)-1H-pyrazolo[4,3-c]pyridin-1-yl)pyrazin-2(1H)-one], the Ki is 30.6 nM at PIM1, 6.24 nM on PIM3 and 718 nM on PIM2.

Turning to `OC1CN(c2cccc(-n3ncc4cnc(-c5cnn(CC(F)(F)F)c5)cc43)n2)C1` [Compound 255, 1-(6-(6-(1-(2,2,2-Trifluoroethyl)-1H-pyrazol-4-yl)-1H-pyrazolo[4,3-c]pyridin-1-yl)pyridin-2-yl)azetidin-3-ol], the inhibitory constant (Ki) is 0.876 nM at PIM1, 1.58 nM at PIM3 and 9.62 nM on PIM2.

Take `Cn1cc(-c2cc3c(cn2)cnn3-c2cccc(N3CC(CN)C3)n2)cn1` [Compound 256, (1-(6-(6-(1-Methyl-1H-pyrazol-4-yl)-1H-pyrazolo[4,3-c]pyridin-1-yl)pyridin-2-yl)azetidin-3-yl)methanamine]: the inhibition constant (Ki) came out at 5.58 nM on PIM1, 2.02 nM on PIM3 and 83.2 nM on PIM2.

Take `Cn1cc(-c2cc3c(cn2)cnn3-c2cccc(N3CC(N)C3)n2)cn1` [Compound 257, 1-(6-(6-(1-Methyl-1H-pyrazol-4-yl)-1H-pyrazolo[4,3-c]pyridin-1-yl)pyridin-2-yl)azetidin-3-amine]: the Ki at PIM1 amounted to 0.784 nM; at PIM3 it was 0.507 nM; on PIM2, 23.3 nM.

Take `NC1CN(c2cccc(-n3ncc4cnc(-c5cnn(CC(F)(F)F)c5)cc43)n2)C1` [Compound 258, 1-(6-(6-(1-(2,2,2-Trifluoroethyl)-1H-pyrazol-4-yl)-1H-pyrazolo[4,3-c]pyridin-1-yl)pyridin-2-yl)azetidin-3-amine]: the Ki came out at 0.514 nM at PIM1, 1.14 nM at PIM3 and 8.18 nM at PIM2.

With `CO[C@@]1(C)CNCCN(c2cccc(-n3ncc4cnc(-c5cnn(CC(F)(F)F)c5)cc43)n2)C1` [Compound 261, (S)-1-(6-(6-Methoxy-6-methyl-1,4-diazepan-1-yl)pyridin-2-yl)-6-(1-(2,2,2-trifluoroethyl)-1H-pyrazol-4-yl)-1H-pyrazolo[4,3-c]pyridine], the Ki amounted to 0.763 nM at PIM1, 2.74 nM at PIM3 and 16.5 nM on PIM2.

On to `NCC1CN(c2cccc(-n3ncc4cnc(-c5cnn(CC(F)(F)F)c5)cc43)n2)C1` [Compound 262, (1-(6-(6-(1-(2,2,2-Trifluoroethyl)-1H-pyrazol-4-yl)-1H-pyrazolo[4,3-c]pyridin-1-yl)pyridin-2-yl)azetidin-3-yl)methanamine], for which the results for the Ki on PIM1, at PIM3 and on PIM2 were 1.23 nM, 1.84 nM and 12.5 nM, respectively.

For `CO[C@]1(C)CNCCN(c2cccc(-n3ncc4cnc(-c5cnn(CC(F)(F)F)c5)cc43)n2)C1` [Compound 264, (R)-1-(6-(6-Methoxy-6-methyl-1,4-diazepan-1-yl)pyridin-2-yl)-6-(1-(2,2,2-trifluoroethyl)-1H-pyrazol-4-yl)-1H-pyrazolo[4,3-c]pyridine], the Ki was found to be 2.94 nM at PIM1, 6.37 nM on PIM3 and 58.2 nM on PIM2.

For the molecule `Cc1cncc(-c2cc3c(cn2)cnn3-c2cccc(C3CNCCC3O)n2)n1` (stereo not drawn) [Compound 265, 3-[6-[6-(6-methylpyrazin-2-yl)pyrazolo[4,3-c]pyridin-1-yl]-2-pyridyl]piperidin-4-ol], the results for the Ki at PIM1, on PIM3 and on PIM2 were 0.941 nM, 0.206 nM and 8.79 nM, respectively.

As for `Cn1cc(-c2cc3c(cn2)cnn3-c2cccc(N3CC4(CCCCN4)C3)n2)cn1` [Compound 266, 1-(6-(2,5-Diazaspiro[3.5]nonan-2-yl)pyridin-2-yl)-6-(1-methyl-1H-pyrazol-4-yl)-1H-pyrazolo[4,3-c]pyridine], the results for the Ki at PIM1, at PIM3 and on PIM2 were 1.1 nM, 1.21 nM and 29.3 nM, respectively.

For the molecule `FC(F)(F)Cn1cc(-c2cc3c(cn2)cnn3-c2cccc(N3CC4(CNC4)C3)n2)cn1` [Compound 267, 1-(6-(2,6-Diazaspiro[3.3]heptan-2-yl)pyridin-2-yl)-6-(1-(2,2,2-trifluoroethyl)-1H-pyrazol-4-yl)-1H-pyrazolo[4,3-c]pyridine], the Ki on PIM1 came to 3.81 nM; on PIM3, 6.01 nM; at PIM2, 30.3 nM.

Regarding `FC(F)(F)Cn1cc(-c2cc3c(cn2)cnn3-c2cccc(N3CC4(CCCCN4)C3)n2)cn1` [Compound 269, 1-(6-(2,5-Diazaspiro[3.5]nonan-2-yl)pyridin-2-yl)-6-(1-(2,2,2-trifluoroethyl)-1H-pyrazol-4-yl)-1H-pyrazolo[4,3-c]pyridine], the results for the Ki at PIM1, at PIM3 and on PIM2 were 15.7 nM, 27 nM and 194 nM, respectively.

With `Cn1cc(-c2cc3c(cn2)cnn3-c2cccc(N3CC(O)(CN)C3)n2)cn1` [Compound 270, 3-(Aminomethyl)-1-(6-(6-(1-methyl-1H-pyrazol-4-yl)-1H-pyrazolo[4,3-c]pyridin-1-yl)pyridin-2-yl)azetidin-3-ol], the Ki worked out at 1.08 nM on PIM1, 0.361 nM on PIM3 and 20.4 nM on PIM2.

As for `Clc1cncc(-c2cc3c(cn2)cnn3-c2cccc(N3CCNCC3)n2)n1` [Compound 275, 6-(6-Chloropyrazin-2-yl)-1-(6-(piperazin-1-yl)pyridin-2-yl)-1H-pyrazolo[4,3-c]pyridine dihydrochloride], the inhibition constant Ki at PIM1 came out at 0.725 nM; on PIM3, 0.267 nM; on PIM2, 5.74 nM.

As to `c1ccc(COc2cncc(-c3cc4c(cn3)cnn4-c3cccc(N4CCNCC4)n3)n2)cc1` [Compound 276, 6-(6-(benzyloxy)pyrazin-2-yl)-1-(6-(piperazin-1-yl)pyridin-2-yl)-1H-pyrazolo[4,3-c]pyridine], the Ki on PIM1 was 0.494 nM; on PIM3 it was 0.337 nM; at PIM2, 34.8 nM.

Consider `OC[C@@H]1CCCN1c1cncc(-c2cc3c(cn2)cnn3-c2cccc(N3CCNCC3)n2)n1` [Compound 280, (S)-(1-(6-(1-(6-(piperazin-1-yl)pyridin-2-yl)-1H-pyrazolo[4,3-c]pyridin-6-yl)pyrazin-2-yl)pyrrolidin-2-yl)methanol dihydrochloride], for which the inhibitory constant (Ki) at PIM1 was found to be 0.051 nM; on PIM3 it was 0.101 nM; on PIM2 it was 18 nM.

With `O=c1cncc(-c2cc3c(cn2)cnn3-c2cccc(N3CCNCC3)n2)[nH]1` [Compound 287, 6-[1-(6-piperazin-1-yl-2-pyridyl)pyrazolo[4,3-c]pyridin-6-yl]-1H-pyrazin-2-one], the values for the Ki on PIM1, at PIM3 and on PIM2 were 0.698 nM, 0.37 nM and 17.5 nM, respectively.

For the molecule `Cc1cncc(-c2cc3c(cn2)cnn3-c2cccc(C3(O)CCCNC3)n2)n1` (stereo not drawn) [Compound 288, 3-(6-(6-(6-methylpyrazin-2-yl)-1H-pyrazolo[4,3-c]pyridin-1-yl)pyridin-2-yl)piperidin-3-ol], the Ki was 0.918 nM at PIM1, 0.564 nM at PIM3 and 5.56 nM on PIM2.

As to `Cn1ncc(-c2cc3c(cn2)cnn3-c2ccccc2F)c1Cl` [Compound 309, 6-(5-chloro-1-methyl-1H-pyrazol-4-yl)-1-(2-fluorophenyl)-1H-pyrazolo[4,3-c]pyridine], the Ki came out at 487 nM at PIM1, 944 nM at PIM3 and 2200 nM on PIM2.

Turning to `Cc1cncc(-c2cc3c(cn2)cnn3-c2cccc(N3CCC(O)C(O)C3)n2)n1` (stereo not drawn) [Compound 312, 1-(6-(6-(6-methylpyrazin-2-yl)-1H-pyrazolo[4,3-c]pyridin-1-yl)pyridin-2-yl)piperidine-3,4-diol], the figures for the inhibition constant Ki at PIM1, at PIM3 and at PIM2 were 0.644 nM, 0.481 nM and 3.58 nM, respectively.

Turning to `Cn1ncc(-c2cc3c(cn2)cnn3-c2ccccc2F)c1C1=CCNCC1` [Compound 314, 1-(2-fluorophenyl)-6-(1-methyl-5-(1,2,3,6-tetrahydropyridin-4-yl)-1H-pyrazol-4-yl)-1H-pyrazolo[4,3-c]pyridine], the figures for the inhibitory constant (Ki) on PIM1, on PIM3 and on PIM2 were 130 nM, 166 nM and 1100 nM, respectively.
